US8686050B2, “Diglycidic ether derivative therapeutics and methods for their use” (British Columbia Cancer Agency Branch, priority 2008, dated 2014)
“Also recorded” adds a separate entry of the source. Structures can show the parent of a compound that is named as a salt.

How the values were obtained:
[1] = target: T1, Gal4 DBD-AR1-558 (AR NTD) (Homo sapiens, UniProt P10275); test: Transactivation of the AR NTD (Gal4 DBD-AR1-558 with 5xGal4UAS-luciferase) in LNCaP cells; assay type: cell-based; settings: LNCaP cells, 185-9-2 5 ug/ml=12 μM, bicalutamide 10 μM
T1 construct: cloning amino acids 1-558 of the human AR NTD into the C-terminus of Gal4 DBD; expressed in transfected cells; host or cells: LNCaP
T1 sequence (P10275 1-558): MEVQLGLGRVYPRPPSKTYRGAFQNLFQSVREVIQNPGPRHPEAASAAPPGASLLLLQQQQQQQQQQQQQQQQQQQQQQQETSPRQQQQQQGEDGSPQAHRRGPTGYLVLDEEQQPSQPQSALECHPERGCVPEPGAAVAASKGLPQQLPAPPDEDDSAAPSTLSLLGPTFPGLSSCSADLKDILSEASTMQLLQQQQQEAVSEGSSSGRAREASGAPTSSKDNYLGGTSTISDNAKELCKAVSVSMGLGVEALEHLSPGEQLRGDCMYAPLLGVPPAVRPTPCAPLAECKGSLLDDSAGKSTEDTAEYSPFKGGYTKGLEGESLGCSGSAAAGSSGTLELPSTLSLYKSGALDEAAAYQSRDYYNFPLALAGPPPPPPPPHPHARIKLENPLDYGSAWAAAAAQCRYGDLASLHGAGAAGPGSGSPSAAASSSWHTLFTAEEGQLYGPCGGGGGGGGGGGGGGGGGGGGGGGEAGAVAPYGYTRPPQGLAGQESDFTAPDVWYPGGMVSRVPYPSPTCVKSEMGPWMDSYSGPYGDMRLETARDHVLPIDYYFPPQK
From the text: These fractions were next tested for their ability to inhibit the AR NTD. […] Extracts identified above were screened by such assays as well as some compounds purchased from commercial suppliers.
Expression vectors for these chimeric proteins were cotransfected into LNCaP cells with a reporter gene containing the Gal4-binding site as cis-acting elements (p5×Gal4UAS-TATA-luciferase).

[2] = tested on: LNCaP xenografts; test: LNCaP subcutaneous xenografts in castrated mice; assay type: in vivo, NOD-SCID male mice
Method: Six to eight-week old male athymic SCID mice were inoculated subcutaneously in the flank region via a 27-gauge needle with a 150 μl suspension of LNCaP or PC3 human prostate cancer cells (1×10^6 cells). The inoculations took place while the animal was under isofluorane anaesthesia. The tumor take rate is approximately 75%. Mice bearing tumors of 100 mm^3 were randomly assigned to treatment groups. Castration was performed as described below. Tumor volume (formula: L×W×H×0.5236) was measured in mice bearing LNCaP subcutaneous tumors that became palpable or visible and at least 40 mm^3. The animals were monitored daily and tumors were measured every 5 days.

[3] = target: T2, glucocorticoid receptor (GR) (Homo sapiens, UniProt P04150); test: GRE-luciferase reporter, steroid receptor specificity; assay type: cell-based; settings: LNCaP cells transfected with GR, steroid 10 nM; 185-9-2 5 μg/ml
T2 construct: Cells were co-transfected with expression plasmids for full-length hGR, PRβ and the relative reporter; expressed in transfected cells; host or cells: LNCaP
T2 sequence (P04150 1-777): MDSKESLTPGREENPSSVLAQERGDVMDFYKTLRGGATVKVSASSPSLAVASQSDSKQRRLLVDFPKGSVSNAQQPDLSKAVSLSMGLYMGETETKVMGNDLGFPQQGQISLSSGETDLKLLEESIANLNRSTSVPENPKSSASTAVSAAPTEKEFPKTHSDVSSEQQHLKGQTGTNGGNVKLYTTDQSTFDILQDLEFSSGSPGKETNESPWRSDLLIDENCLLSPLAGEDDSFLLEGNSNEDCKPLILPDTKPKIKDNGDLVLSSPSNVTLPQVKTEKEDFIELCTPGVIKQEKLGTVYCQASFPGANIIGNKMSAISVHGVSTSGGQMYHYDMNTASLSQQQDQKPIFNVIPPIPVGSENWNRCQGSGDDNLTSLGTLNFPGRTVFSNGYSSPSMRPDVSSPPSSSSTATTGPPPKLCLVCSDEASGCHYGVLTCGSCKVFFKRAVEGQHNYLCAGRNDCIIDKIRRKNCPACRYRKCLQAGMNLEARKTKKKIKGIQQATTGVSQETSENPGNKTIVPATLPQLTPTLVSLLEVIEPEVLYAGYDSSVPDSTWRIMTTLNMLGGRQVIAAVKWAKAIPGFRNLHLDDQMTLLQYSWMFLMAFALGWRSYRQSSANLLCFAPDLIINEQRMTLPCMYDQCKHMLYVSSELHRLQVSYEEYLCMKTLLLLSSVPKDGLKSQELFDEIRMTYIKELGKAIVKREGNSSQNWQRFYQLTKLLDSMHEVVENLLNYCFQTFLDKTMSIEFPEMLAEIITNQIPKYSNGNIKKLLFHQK
Method: Sequence similarities of amino acids in the AR with related human steroid receptors PR and glucocorticoid receptor (GR) are significant in some domains such as the DBD. The AR NTD shares less than 15% homology with the PR and GR, but these receptors interact with some of the same proteins (eg., SRC-1 and CBP). […] Cells were co-transfected with expression plasmids for full-length hGR, PRβ and the relative reporter (i.e., pGR-Luc or PRE-E1b-Luc reporters). Cells were then treated with ethanol vehicle, dexamethasone (GR), 4-pregnene-3,20 dione (progesterone) (PR) followed by measurement of luciferase activity. […] Some antiandrogens currently used in the clinic have progestational and glucocorticoidal activities. In adult males, the role of the PR activity is unclear.

Compound: CC(C)(c1ccc(OCC(O)CO)cc1)c1ccc(OCC(O)CCl)cc1 (stereo not drawn) [185-9-2, BADGE.HCL.H2O]
- FSK-induced transactivation of the AR NTD ([1]; FSK 50 μM): to baseline levels; also recorded: blocked
- IL-6-induced transactivation of the AR NTD ([1]; IL-6 50 ng/ml): to baseline levels; also recorded: blocked
- size of LNCaP xenograft tumors, intratumoral injection ([2]; castrated mice, I.T. every 5 days, 20 mg/kg body weight, 20 mg/kg): reduced the size of the tumors; also recorded: significantly reduce the tumors
- size of LNCaP xenograft tumors, intravenous injection ([2]; castrated mice, I.V. 50 mg/kg body weight every other day): reduced the size of the tumors
- LNCaP tumor volume at the duration (end) of the experiment, intratumoral ([2]; castrated mice, i.t. every 5 days, five doses): 35.4±15.7 mm^3
- LNCaP tumor volume within 2 weeks of i.v. injection ([2]; castrated mice, i.v. 50 mg/kg every other day): 64.3±29.6 mm^3
- apoptosis in xenografts (TUNEL) ([2]; intravenous delivery, IHC): increased apoptosis
- proliferation in xenografts (Ki67) ([2]; intravenous delivery, IHC): reduced proliferation
- GRE-luciferase activity in response to ligand [3]: did NOT inhibit; also recorded: does NOT inhibit
